Data as given in patent US12054483B2, “Small molecule inhibitors of DYRK/CLK and uses thereof” (Arizona Board of Regents on Behalf of the University of …, priority 2018, dated 2024).

These molecules were tested against DYRK1A (Homo sapiens, UniProt Q13627) (assay: Affinity testing of compounds with DYRK1A (KD)). Details: DYRK1A affinity key classes.
Assay type: binding

| Kd [nM] | SMILES |
| --- | --- |
| 501 to 10000 | Cc1cc(-c2ccc3nc(C)n(-c4ccc(N5CCOCC5)cc4)c3n2)cc(C)n1 [Compound 53, 4-(4-(5-(2,6-dimethylpyridin-4-yl)-2-methyl-3H-imidazo[4,5-b]pyridin-3-yl)phenyl)morpholine] |
| 0.5 to 100 | COC(=O)c1ccc(-n2cnc3ccc(-c4ccncc4)nc32)cc1 [Compound 9, methyl 4-(5-(pyridin-4-yl)-3H-imidazo[4,5-b]pyridin-3-yl)benzoate] |
| 0.5 to 100 | Cc1nc2ccc(-c3ccnc(N)c3)nc2n1-c1ccc(N2CCOCC2)c(F)c1 [Compound 144, 4-(3-(3-fluoro-4-morpholinophenyl)-2-methyl-3H-imidazo[4,5-b]pyridin-5-yl)pyridin-2-amine] |
| 0.5 to 100 | CC(=O)N1CCc2cc(-n3c(C)nc4ccc(-c5ccnc(N)c5)nc43)ccc21 [Compound 154, 1-(5-(5-(2-aminopyridin-4-yl)-2-methyl-3H-imidazo[4,5-b]pyridin-3-yl)indolin-1-yl)ethan-1-one] |
| 0.5 to 100 | COc1ccc(-n2c(C)nc3ccc(-c4ccncc4)nc32)cc1 [Compound 43, 3-(4-methoxyphenyl)-2-methyl-5-(pyridin-4-yl)-3H-imidazo[4,5-b]pyridine] |
| 101 to 500 | Cc1cc(-c2ccc3ncc(-c4ccc(CN5CCCC(F)(F)C5)cc4)n3n2)ccn1 [Compound 89, 3-(4-((3,3-difluoropiperidin-1-yl)methyl)phenyl)-6-(2-methylpyridin-4-yl)imidazo[1,2-b]pyridazine] |
| 0.5 to 100 | Cc1nc2ccc(-c3ccnc(N)c3)nc2n1-c1ccc2[nH]cnc2c1 [Compound 49, 4-(3-(1H-benzo[d]imidazol-5-yl)-2-methyl-3H-imidazo[4,5-b]pyridin-5-yl)pyridin-2-amine] |
| 0.5 to 100 | Cc1nc2ccc(-c3ccncc3)nc2n1-c1ncc(CN2CCCC(F)(F)C2)s1 [Compound 62, 5-((3,3-difluoropiperidin-1-yl)methyl)-2-(2-methyl-5-(pyridin-4-yl)-3H-imidazo[4,5-b]pyridin-3-yl)thiazole] |
| 501 to 10000 | N#Cc1cnccc1-c1ccc2ncc(-c3ccc(CN4CCOCC4)cc3)n2n1 [Compound 106, 4-(3-(4-(morpholinomethyl)phenyl)imidazo[1,2-b]pyridazin-6-yl)nicotinonitrile] |
| 0.5 to 100 | Cc1cc(-c2ccc3nc(C)n(-c4ccc5[nH]cnc5c4)c3n2)ccn1 [Compound 50, 3-(1H-benzo[d]imidazol-5-yl)-2-methyl-5-(2-methylpyridin-4-yl)-3H-imidazo[4,5-b]pyridine] |
| 0.5 to 100 | Cc1nc2ccc(-c3ccnc(N)c3)nc2n1-c1ccc2c(c1)OCC(=O)N2 [Compound 46, 7-(5-(2-aminopyridin-4-yl)-2-methyl-3H-imidazo[4,5-b]pyridin-3-yl)-2H-benzo[b][1,4]oxazin-3(4H)-one] |
| 0.5 to 100 | c1cc(-c2ccc3nnn(-c4ccc5[nH]cnc5c4)c3n2)ccn1 [Compound 59, 3-(1H-benzo[d]imidazol-5-yl)-5-(pyridin-4-yl)-3H-[1,2,3]triazolo[4,5-b]pyridine] |
| 0.5 to 100 | CC(=O)N1C[C@@H]2[C@H](C1)[C@H]2n1c(C)nc2ccc(-c3ccncc3)nc21 [Compound 38, 1-((1R,5S,6s)-6-(2-methyl-5-(pyridin-4-yl)-3H-imidazo[4,5-b]pyridin-3-yl)-3-azabicyclo[3.1.0]hexan-3-yl)ethan-1-one] |
| 101 to 500 | O=C(O)c1ccc(-n2cnc3cc(F)c(-c4ccncc4)cc32)cc1 [Compound 8, 4-(5-fluoro-6-(pyridin-4-yl)-1H-benzo[d]imidazol-1-yl)benzoic acid] |
| 101 to 500 | Cc1nc2cc(-n3c(C)nc4ccc(-c5cn[nH]c5)nc43)ccc2o1 [Compound 36, 2-methyl-5-(2-methyl-5-(1H-pyrazol-4-yl)-3H-imidazo[4,5-b]pyridin-3-yl)benzo oxazole] |
| 0.5 to 100 | Cc1nc2ccc(-c3ccncc3)nc2n1-c1ccc(CN2CCOC(C)(C)C2)cc1 [Compound 120, 2,2-dimethyl-4-(4-(2-methyl-5-(pyridin-4-yl)-3H-imidazo[4,5-b]pyridin-3-yl)benzyl)morpholine] |
| 0.5 to 100 | Cc1nc2ccc(-c3ccnc4[nH]ccc34)nc2n1-c1ccc(CN2CCOCC2)cc1 [Compound 179, 4-(4-(2-methyl-5-(1H-pyrrolo[2,3-b]pyridin-4-yl)-3H-imidazo[4,5-b]pyridin-3-yl)benzyl)morpholine] |
| 501 to 10000 | O=c1cc(-c2ccn3ncc(-c4ccc(CN5CCOCC5)cc4)c3n2)cc[nH]1 [Compound 113, 4-(3-(4-(morpholinomethyl)phenyl)pyrazolo[1,5-a]pyrimidin-5-yl)pyridin-2(1H)-one] |
| 0.5 to 100 | Cc1nc2ccc(-c3ccnc(N)c3)nc2n1-c1ccc(N2C[C@H]3C[C@H]2CO3)nc1 [Compound 160, 4-(3-(6-((1R,4S)-2-oxa-5-azabicyclo[2.2.1]heptan-5-yl)pyridin-3-yl)-2-methyl-3H-imidazo[4,5-b]pyridin-5-yl)pyridin-2-amine] |
| 0.5 to 100 | Cc1nc2ccc(-c3ccncc3)nc2n1-c1ccc(CN2CCN(C3COC3)CC2)cc1 [Compound 63, 2-methyl-3-(4-((4-(oxetan-3-yl)piperazin-1-yl)methyl)phenyl)-5-(pyridin-4-yl)-3H-imidazo[4,5-b]pyridine] |

| Kd [nM] | SMILES |
| --- | --- |
| 0.5 to 100 | Cc1nc2ccc(-c3ccnc(Cl)c3)nc2n1-c1ccc(CN2CCOCC2)cc1 [Compound 176, 4-(4-(5-(2-chloropyridin-4-yl)-2-methyl-3H-imidazo[4,5-b]pyridin-3-yl)benzyl)morpholine] |
| 0.5 to 100 | CC(=O)N1CCN(Cc2ccc(-c3cnc4ccc(-c5ccncc5)nn34)cc2)CC1 [Compound 104, 1-(4-(4-(6-(pyridin-4-yl)imidazo[1,2-b]pyridazin-3-yl)benzyl)piperazin-1-yl)ethan-1-one] |
| 0.5 to 100 | Cc1nc2ccc(-c3ccnc(N)c3)nc2n1-c1cccc(CN2C[C@H](C)O[C@@H](C)C2)c1 [Compound 156, 4-(3-(3-(((2S,6S)-2,6-dimethylmorpholino)methyl)phenyl)-2-methyl-3H-imidazo[4,5-b]pyridin-5-yl)pyridin-2-amine] |
| 101 to 500 | Cc1nc2ccc(-c3ccncc3)nc2n1-c1ccc(CN2CCOCC2)nc1 [Compound 133, 4-((5-(2-methyl-5-(pyridin-4-yl)-3H-imidazo[4,5-b]pyridin-3-yl)pyridin-2-yl)methyl)morpholine] |
| 0.5 to 100 | Cc1nc2ccc(-c3ccnc4[nH]ccc34)nc2n1-c1ccc(N2CCOCC2)c(F)c1 [Compound 143, 4-(2-fluoro-4-(2-methyl-5-(1H-pyrrolo[2,3-b]pyridin-4-yl)-3H-imidazo[4,5-b]pyridin-3-yl)phenyl)morpholine] |
| 0.5 to 100 | Cc1nc2ccc(-c3ccncc3)nc2n1-c1ccc2c(c1)OCO2 [Compound 29, 3-(benzo[d][1,3]dioxol-5-yl)-2-methyl-5-(pyridin-4-yl)-3H-imidazo[4,5-b]pyridine] |
| 101 to 500 | O=C(O)c1ccc(-n2cnc3ccc(-c4ccncc4)c(F)c32)cc1 [Compound 6, 4-(7-fluoro-6-(pyridin-4-yl)-1H-benzo[d]imidazol-1-yl)benzoic acid] |
| 0.5 to 100 | Cc1cc(-c2ccc3ncc(-c4ccc(CN5C[C@@H]6C[C@@H]5CO6)cc4)n3n2)ccn1 [Compound 91, (1S,4R)-5-(4-(6-(2-methylpyridin-4-yl)imidazo[1,2-b]pyridazin-3-yl)benzyl)-2-oxa-5-azabicyclo[2.2.1]heptane] |
| 0.5 to 100 | Cc1nc2ccc(-c3cnn(C4CC4)c3)nc2n1-c1ccc(N2CCOCC2)c(F)c1 [Compound 147, 4-(4-(5-(1-cyclopropyl-1H-pyrazol-4-yl)-2-methyl-3H-imidazo[4,5-b]pyridin-3-yl)-2-fluorophenyl)morpholine] |
| 501 to 10000 | COc1cnc(-c2ccncc2)nc1 [Compound 70, 5-methoxy-2-(pyridin-4-yl)pyrimidine] |
| 0.5 to 100 | Cc1nc2ccc(-c3ccncc3)nc2n1-c1ccc(C#N)cn1 [Compound 42, 6-(2-methyl-5-(pyridin-4-yl)-3H-imidazo[4,5-b]pyridin-3-yl)nicotinonitrile] |
| 0.5 to 100 | Cc1nc2ccc(-c3cn[nH]c3)nc2n1-c1ccc2[nH]cnc2c1 [Compound 33, 3-(1H-benzo[d]imidazol-5-yl)-2-methyl-5-(1H-pyrazol-4-yl)-3H-imidazo[4,5-b]pyridine] |
| 0.5 to 100 | Nc1cc(-c2ccc3ncc(-c4ccc(CN5CCCCC5)cc4)n3n2)ccn1 [Compound 110, 4-(3-(4-(piperidin-1-ylmethyl)phenyl)imidazo[1,2-b]pyridazin-6-yl)pyridin-2-amine] |
| 0.5 to 100 | Cc1nc2ccc(-c3ccncc3)nc2n1-c1ccc(CN2C[C@@H](C)N(C)[C@@H](C)C2)cc1 [Compound 119, 2-methyl-5-(pyridin-4-yl)-3-(4-(((3R,5S)-3,4,5-trimethylpiperazin-1-yl)methyl)phenyl)-3H-imidazo[4,5-b]pyridine] |
| 0.5 to 100 | Cc1nc2ccc(-c3ccncc3)nc2n1-c1cccc(CN2CCOCC2)c1 [Compound 140, 4-(3-(2-methyl-5-(pyridin-4-yl)-3H-imidazo[4,5-b]pyridin-3-yl)benzyl)morpholine] |
| 0.5 to 100 | Cc1nc2ccc(-c3ccncc3)nc2n1-c1ccc(N2CCN(C)CC2)c(F)c1 [Compound 135, 3-(3-fluoro-4-(4-methylpiperazin-1-yl)phenyl)-2-methyl-5-(pyridin-4-yl)-3H-imidazo[4,5-b]pyridine] |
| 0.5 to 100 | Cc1nc2ccc(-c3ccncc3)nc2n1-c1ccc2[nH]ccc2c1 [Compound 136, 3-(1H-indol-5-yl)-2-methyl-5-(pyridin-4-yl)-3H-imidazo[4,5-b]pyridine] |
| 0.5 to 100 | Cc1nc2ccc(-c3ccncc3)nc2n1-c1ccc(CN2CCC3(COC3)C2)cc1 [Compound 121, 6-(4-(2-methyl-5-(pyridin-4-yl)-3H-imidazo[4,5-b]pyridin-3-yl)benzyl)-2-oxa-6-azaspiro[3.4]octane] |
| 0.5 to 100 | Cc1nc2ccc(-c3cn[nH]c3)nc2n1-c1ccc2c(c1)OCO2 [Compound 30, 3-(benzo[d][1,3]dioxol-5-yl)-2-methyl-5-(1H-pyrazol-4-yl)-3H-imidazo[4,5-b]pyridine] |
| 101 to 500 | FC1(F)CN(Cc2ccc(-c3cnc4ccc(-c5ccncc5)nn34)cc2)C1 [Compound 102, 3-(4-((3,3-difluoroazetidin-1-yl)methyl)phenyl)-6-(pyridin-4-yl)imidazo[1,2-b]pyridazine] |
